Common to all, as to type: biochemical
One assay deals with PLK3 (Homo sapiens, UniProt Q9H4B4). Kind of assay: PLK TR-FRET peptide assay, PLK3. In general terms: TR-FRET usually uses a lanthanide donor and a delayed reading to cut background.
Another assay concerns the target PLK1 (Homo sapiens, UniProt P53350). As to the kind of experiment: PLK TR-FRET peptide assay, PLK1.
The next assay deals with PLK2 (Homo sapiens, UniProt Q9NYY3). Kind of assay: PLK TR-FRET peptide assay, PLK2. Conditions: for IC50: read-out: Plk2 IC50.
Sequence of PLK2 (Q9NYY3 whole entry): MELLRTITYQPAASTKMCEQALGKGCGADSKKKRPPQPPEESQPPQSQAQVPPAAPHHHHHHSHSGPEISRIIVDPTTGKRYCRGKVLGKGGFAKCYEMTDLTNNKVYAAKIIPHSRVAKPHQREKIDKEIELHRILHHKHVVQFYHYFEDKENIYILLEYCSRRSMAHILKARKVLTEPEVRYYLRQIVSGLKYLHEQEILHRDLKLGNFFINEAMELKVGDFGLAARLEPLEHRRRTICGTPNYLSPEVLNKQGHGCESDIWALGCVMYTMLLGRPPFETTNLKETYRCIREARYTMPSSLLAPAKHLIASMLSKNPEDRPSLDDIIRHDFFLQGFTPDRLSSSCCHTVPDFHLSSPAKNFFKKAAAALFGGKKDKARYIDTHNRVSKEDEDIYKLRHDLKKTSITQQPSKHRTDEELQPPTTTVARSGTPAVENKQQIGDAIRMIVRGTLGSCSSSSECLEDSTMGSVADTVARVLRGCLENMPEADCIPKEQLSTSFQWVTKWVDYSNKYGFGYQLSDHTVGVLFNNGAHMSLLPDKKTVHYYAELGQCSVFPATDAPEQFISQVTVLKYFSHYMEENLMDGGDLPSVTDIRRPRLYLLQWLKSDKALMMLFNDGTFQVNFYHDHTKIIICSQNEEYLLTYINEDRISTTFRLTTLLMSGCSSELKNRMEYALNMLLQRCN
The mark [1] stands for this setting: GST-PLK3, 15 min reaction, read-out: Plk3 IC50.
Where [2] appears, read: PLK TR-FRET peptide assay, GST-PLK2, 60 min reaction.
The mark [3] stands for this setting: PLK TR-FRET peptide assay, GST-PLK2.

Like-named read-outs stand apart in the source and are kept apart here.

Sequence of PLK1 (P53350 whole entry): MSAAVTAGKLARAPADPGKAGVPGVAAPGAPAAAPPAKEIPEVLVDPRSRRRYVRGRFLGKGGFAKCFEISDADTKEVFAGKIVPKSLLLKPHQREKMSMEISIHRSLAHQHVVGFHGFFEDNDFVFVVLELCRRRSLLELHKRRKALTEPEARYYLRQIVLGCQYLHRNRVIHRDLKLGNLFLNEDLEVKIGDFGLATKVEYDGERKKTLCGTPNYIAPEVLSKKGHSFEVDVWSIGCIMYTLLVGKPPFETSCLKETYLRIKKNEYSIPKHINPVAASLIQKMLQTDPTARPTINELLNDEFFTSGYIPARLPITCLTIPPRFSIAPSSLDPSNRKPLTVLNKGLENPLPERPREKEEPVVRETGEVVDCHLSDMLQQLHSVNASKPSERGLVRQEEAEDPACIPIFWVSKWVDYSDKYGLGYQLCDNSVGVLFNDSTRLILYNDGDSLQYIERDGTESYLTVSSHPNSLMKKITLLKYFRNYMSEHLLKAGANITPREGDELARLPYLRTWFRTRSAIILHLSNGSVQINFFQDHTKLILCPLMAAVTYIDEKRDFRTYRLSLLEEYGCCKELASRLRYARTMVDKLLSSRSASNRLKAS
Sequence of PLK3 (Q9H4B4 whole entry): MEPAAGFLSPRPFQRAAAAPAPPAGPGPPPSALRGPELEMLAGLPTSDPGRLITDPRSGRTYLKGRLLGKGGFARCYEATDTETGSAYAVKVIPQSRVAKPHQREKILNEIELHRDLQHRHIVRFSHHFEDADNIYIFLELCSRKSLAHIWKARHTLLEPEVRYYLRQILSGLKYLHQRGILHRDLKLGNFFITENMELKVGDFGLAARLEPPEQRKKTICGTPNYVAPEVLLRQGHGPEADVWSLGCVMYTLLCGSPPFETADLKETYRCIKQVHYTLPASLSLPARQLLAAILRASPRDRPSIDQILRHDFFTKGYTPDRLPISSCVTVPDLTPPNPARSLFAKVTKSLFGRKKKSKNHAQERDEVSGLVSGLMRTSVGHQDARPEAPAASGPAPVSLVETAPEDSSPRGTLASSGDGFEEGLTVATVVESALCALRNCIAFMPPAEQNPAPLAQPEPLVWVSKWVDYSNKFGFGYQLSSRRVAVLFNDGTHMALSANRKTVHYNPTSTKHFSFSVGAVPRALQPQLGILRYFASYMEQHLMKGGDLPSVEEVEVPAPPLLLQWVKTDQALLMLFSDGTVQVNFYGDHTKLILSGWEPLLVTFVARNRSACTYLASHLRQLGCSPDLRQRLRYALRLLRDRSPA

Broadly, the IC50 is the point on the concentration scale where inhibition reaches its midpoint. For `CCC12CCCCN1c1nc(-n3ccnc3-c3cc(F)cc(F)c3)ncc1N(C)C2=O` (racemic) [Example 243, (+/−) 2-(2-(3,5-difluorophenyl)-1H-imidazol-1-yl)-6a-ethyl-5-methyl-7,8,9,10-tetrahydro-5H-pyrido[2,1-h]pteridin-6(6aH)-one], the half-maximal inhibitory concentration (IC50) on PLK3 (setting [1]) is above 50 µM; at PLK1 (GST-PLK1, 60 min reaction) it was 10 to 50 µM; at PLK2 (setting [2]) it was below 1 µM.
Regarding `CC[C@@H]1C(=O)N(C)c2cnc(-c3ccccc3C(F)(F)F)nc2N1C1CCC1` [Example 98, (R)-8-cyclobutyl-7-ethyl-5-methyl-2-(2-(trifluoromethyl)phenyl)-7,8-dihydropteridin-6(5H)-one], the IC50 on PLK3 (setting [1]) was above 50 µM; against PLK1 (GST-PLK1, 60 min reaction), 10 to 50 µM; on PLK2 (setting [2]), 1 to 10 µM.
Take `CC[C@H]1C(=O)N(C)c2cnc(-c3cnsc3-c3ccc(F)cc3)nc2N1c1cccc(C#N)c1` [Example 392, (S)-3-(7-ethyl-2-(5-(4-fluorophenyl)isothiazol-4-yl)-5-methyl-6-oxo-6,7-dihydropteridin-8(5H)-yl)benzonitrile]: the IC50 at PLK3 (GST-PLK3, read-out: Plk3 IC50) was above 50 µM; on PLK1 (GST-PLK1), above 50 µM; at PLK2 (setting [3]), above 50 µM.
As to `CC[C@@H]1C(=O)N(C)c2cnc(N3CCN=C3C3CC3)nc2N1C(C)C` [Example 297, (R)-2-(2-cyclopropyl-4,5-dihydro-1H-imidazol-1-yl)-7-ethyl-8-isopropyl-5-methyl-7,8-dihydropteridin-6(5H)-one], the IC50 on PLK3 (setting [1]) lay within 10 to 50 µM; at PLK1 (GST-PLK1, 60 min reaction), 10 to 50 µM; at PLK2 (setting [2]) it was 10 to 50 µM.
On to `CC[C@@]12CCCN1c1nc(-n3ccnc3-c3cc(Cl)cc(Cl)c3)ncc1N(C)C2=O` [Example 184, (S)-2-(2-(3,5-dichlorophenyl)-1H-imidazol-1-yl)-6a-ethyl-5-methyl-6a,7,8,9-tetrahydropyrrolo[2,1-h]pteridin-6(5H)-one], for which the IC50 on PLK3 (setting [1]) was 10 to 50 µM; at PLK1 (GST-PLK1, 60 min reaction), 10 to 50 µM; at PLK2 (setting [2]), below 1 µM.
On to `CC[C@@H]1C(=O)N(C)c2cnc(-n3ccnc3N3CCCC3=O)nc2N1C1CCCC1` [Example 82, (R)-8-cyclopentyl-7-ethyl-5-methyl-2-(2-(2-oxopyrrolidin-1-yl)-1H-imidazol-1-yl)-7,8-dihydropteridin-6(5H)-one], for which the IC50 on PLK3 (setting [1]) is 10 to 50 µM; on PLK1 (GST-PLK1, 60 min reaction), 1 to 10 µM; on PLK2 (setting [2]) it was 1 to 10 µM.
For the compound `CCC1C(=O)N(C)c2cnc(-n3ccnc3-c3ccc(F)cc3)nc2N1c1ccc(Cl)cc1` (stereo not shown) [Example 388, 8-(4-chlorophenyl)-7-ethyl-2-(2-(4-fluorophenyl)-1H-imidazol-1-yl)-5-methyl-7,8-dihydropteridin-6(5H)-one], the IC50 is 1 to 10 µM on PLK3 (GST-PLK3, read-out: Plk3 IC50); 1 to 10 µM at PLK1 (GST-PLK1); below 1 µM on PLK2 (setting [3]).
For `CC[C@@H]1C(=O)N(C)c2cnc(-c3ccncc3NC(C)=O)nc2N1C(C)C` [Example 118, (R)—N-(4-(7-ethyl-8-isopropyl-5-methyl-6-oxo-5,6,7,8-tetrahydropteridin-2-yl)pyridin-3-yl)acetamide], the IC50 on PLK3 (setting [1]) was above 50 µM; against PLK1 (GST-PLK1, 60 min reaction), above 50 µM; on PLK2 (setting [2]), 1 to 10 µM.
For the compound `[2H]C([2H])([2H])N1C(=O)[C@H](C([2H])([2H])C([2H])([2H])[2H])N(C([2H])(C([2H])([2H])[2H])C([2H])([2H])[2H])c2nc(-n3ccnc3-c3ccc(F)cc3)ncc21` [Example 199, (S)-7-perdeuteroethyl-2-(2-(4-fluorophenyl)-1H-imidazol-1-yl)-8-perdeuteroisopropyl-5-trideuteromethyl-7,8-dihydropteridin-6(5H)-one], the IC50 was above 50 µM at PLK3 (setting [1]); 10 to 50 µM against PLK1 (GST-PLK1, 60 min reaction); 1 to 10 µM at PLK2 (setting [2]).
For `CC[C@@H]1C(=O)N(C)c2cnc(-c3ccncc3CNS(=O)(=O)c3ccccc3)nc2N1C1CCCC1` [Example 125, (R)—N-((4-(8-cyclopentyl-7-ethyl-5-methyl-6-oxo-5,6,7,8-tetrahydropteridin-2-yl)pyridin-3-yl)methyl)benzenesulfonamide], in that order: 10 to 50 µM, 10 to 50 µM and 1 to 10 µM.
Take “7-perdeuteroethyl-8-perdeuteroisopropyl-5-trideuteromethyl-2-(3-phenylpyridin-4-yl)-7,8-dihydropteridin-6(5H)-one [Example 146]”: the IC50 is below 1 µM on PLK3 (setting [1]); below 1 µM against PLK1 (GST-PLK1, 60 min reaction); below 1 µM at PLK2.
For `CN1C(=O)[C@@H](CC(F)(F)F)N(CCC(F)(F)F)c2nc(-n3ccnc3)ncc21` [Example 301, (R)-2-(1H-imidazol-1-yl)-5-methyl-7-(2,2,2-trifluoroethyl)-8-(3,3,3-trifluoropropyl)-7,8-dihydropteridin-6(5H)-one], the IC50 at PLK3 (setting [1]) was 10 to 50 µM; against PLK1 (GST-PLK1, 60 min reaction), 10 to 50 µM; on PLK2 (setting [2]), below 1 µM. In addition, the “relative PLK2 activity of the enantiomers” value on PLK2 (compared with the opposite enantiomer) was “more active compound”.
`CC[C@@H]1C(=O)N(C)c2cnc(-n3ccnc3-c3cccc(F)c3)nc2N1C1CC(F)(F)C1` [Example 194, (R)-8-(3,3-difluorocyclobutyl)-7-ethyl-2-(2-(3-fluorophenyl)-1H-imidazol-1-yl)-5-methyl-7,8-dihydropteridin-6(5H)-one]: the IC50 was 10 to 50 µM on PLK3 (setting [1]); below 1 µM on PLK1 (GST-PLK1, 60 min reaction); below 1 µM on PLK2 (setting [2]).
Consider `[2H]C([2H])([2H])N1C(=O)C(C([2H])([2H])C([2H])([2H])[2H])N(C([2H])(C([2H])([2H])[2H])C([2H])([2H])[2H])c2nc(-n3ccnc3-c3cccc(C(F)(F)F)c3)ncc21` (stereo not shown) [Example 172, 7-ethyl-8-isopropyl-5-methyl-2-(2-(3-(trifluoromethyl)phenyl)-1H-imidazol-1-yl)-7,8-dihydropteridin-6(5H)-one], for which the IC50 at PLK3 (setting [1]) was above 50 µM; against PLK1 (GST-PLK1, 60 min reaction), 1 to 10 µM; on PLK2 (setting [2]), below 1 µM.
For `CC[C@@H]1C(=O)N(C)c2cnc(-n3ccnc3-c3ccc(F)c(F)c3)nc2N1C1CCC1` [Example 48, (R)-8-cyclobutyl-2-(2-(3,4-difluorophenyl)-1H-imidazol-1-yl)-7-ethyl-5-methyl-7,8-dihydropteridin-6(5H)-one] the same measures were 10 to 50 µM, 1 to 10 µM and below 1 µM.
For `CC[C@@H]1C(=O)N(C)c2cnc(-n3ccnc3-c3cccc(Cl)c3)nc2N1C1CCOC1` (stereo partly drawn) [Example 211, (7R)-2-(2-(3-chlorophenyl)-1H-imidazol-1-yl)-7-ethyl-5-methyl-8-(tetrahydrofuran-3-yl)-7,8-dihydropteridin-6(5H)-one] the same measures were 1 to 10 µM, below 1 µM and below 1 µM.
For `[2H]C([2H])([2H])N1C(=O)[C@H](C([2H])([2H])C([2H])([2H])[2H])N(C([2H])(C([2H])([2H])[2H])C([2H])([2H])[2H])c2nc(-n3ccnc3-c3cc(F)cc(F)c3)ncc21` [Example 178, (S)-2-(2-(3,5-difluorophenyl)-1H-imidazol-1-yl)-7-perdeuteroethyl-8-perdeuteroisopropyl-5-trideuteromethyl-7,8-dihydropteridin-6(5H)-one], the IC50 at PLK3 (setting [1]) was above 50 µM; on PLK1 (GST-PLK1, 60 min reaction) it was above 50 µM; on PLK2 (setting [2]), 10 to 50 µM.
With `CC[C@@]12CCCN1c1nc(-n3ccnc3-c3cnc4ccccc4c3)ncc1N(C)C2=O` [Example 241, (S)-6a-ethyl-5-methyl-2-(2-(quinolin-3-yl)-1H-imidazol-1-yl)-6a,7,8,9-tetrahydropyrrolo[2,1-h]pteridin-6(5H)-one], the IC50 is above 50 µM on PLK3 (setting [1]); 10 to 50 µM on PLK1 (GST-PLK1, 60 min reaction); below 1 µM at PLK2 (setting [2]).
For `CC(C)N1c2nc(-n3ccnc3-c3ccc(F)cc3)ncc2N(C)C(=O)C1(C)C` [Example 298, 2-(2-(4-fluorophenyl)-1H-imidazol-1-yl)-8-isopropyl-5,7,7-trimethyl-7,8-dihydropteridin-6(5H)-one], in that order: above 50 µM, above 50 µM and 1 to 10 µM.
Regarding `CC[C@@H]1C(=O)N(C)c2cnc(-n3ccnc3-c3ccc(F)cc3)nc2N1C1CCC1` [Example 50, (R)-8-cyclobutyl-7-ethyl-2-(2-(4-fluorophenyl)-1H-imidazol-1-yl)-5-methyl-7,8-dihydropteridin-6(5H)-one], the half-inhibitory concentration (IC50) is 1 to 10 µM at PLK3 (setting [1]); 1 to 10 µM at PLK1 (GST-PLK1, 60 min reaction); below 1 µM on PLK2 (setting [2]).
Regarding `CN1C(=O)[C@H]2CCCN2c2nc(-n3ccnc3)ncc21` [Example 33, (R)-2-(1H-imidazol-1-yl)-5-methyl-6a,7,8,9-tetrahydropyrrolo[2,1-h]pteridin-6(5H)-one], the IC50 at PLK3 (setting [1]) is above 50 µM; against PLK1 (GST-PLK1, 60 min reaction), above 50 µM; on PLK2 (setting [2]), 10 to 50 µM.
As for `CC[C@@]12CCCN1c1nc(-n3ccnc3-c3cccc(Cl)c3)ncc1N(C)C2=O` [Example 236, (S)-2-(2-(3-chlorophenyl)-1H-imidazol-1-yl)-6a-ethyl-5-methyl-6a,7,8,9-tetrahydropyrrolo[2,1-h]pteridin-6(5H)-one], the IC50 is 10 to 50 µM at PLK3 (setting [1]); 1 to 10 µM at PLK1 (GST-PLK1, 60 min reaction); below 1 µM at PLK2 (setting [2]).
For `CCC12CCCCCN1c1nc(-n3ccnc3-c3ccccc3)ncc1N(C)C2=O` (racemic) [Example 205, (+/−) 6a-ethyl-5-methyl-2-(2-phenyl-1H-imidazol-1-yl)-6a,7,8,9,10,11-hexahydroazepino[2,1-h]pteridin-6(5H)-one] the same measures were 10 to 50 µM, 10 to 50 µM and below 1 µM.
For `CC[C@@H]1C(=O)N(C)c2cnc(-c3ccc(S(C)(=O)=O)cc3)nc2N1C1CCCC1` [Example 64, (R)-8-cyclopentyl-7-ethyl-5-methyl-2-(4-(methylsulfonyl)phenyl)-7,8-dihydropteridin-6(5H)-one], in that order: 1 to 10 µM, below 1 µM and below 1 µM.

Values taken from patent publication US8541418B2, “Inhibitors of polo-like kinase” (Elan Pharmaceutical, Inc., priority 2009, dated 2013).
